Data reported in ChEMBL document CHEMBL1144896 (2003).

Key:
BJ [1] = assay: hTERT-SEAP (Human telomerase reverse transcriptase-SEAP) activity in immortalized hTERT-BJI at 24 uM concentration and level of cell viability determined in MTT assay; assay type: functional
NCI-H1299 [2] = assay: Compound was tested for human telomerase reverse transcriptase-SEAP (hTERT-SEAP) activity in non-small cell lung cancer H1299 cell at 24 uM concentration; assay type: functional
NCI-H1299 [3] = assay: hTERT-SEAP (Human telomerase reverse transcriptase-SEAP) activity in non-small cell lung cancer H1299 cell at 2.4 uM concentration and level of cell viability determined in MTT assay; assay type: functional
NCI-H1299 [4] = assay: hTERT-SEAP (Human telomerase reverse transcriptase-SEAP) activity in non-small cell lung cancer H1299 cell at 240.0 uM concentration and level of cell viability determined in MTT assay; assay type: functional
BJ [5] = assay: Compound was tested for human telomerase reverse transcriptase-SEAP (hTERT-SEAP) activity in immortalized hTERT-BJI at 240.0 uM concentration; assay type: functional
NCI-H1299 [6] = assay: Compound was tested for human telomerase reverse transcriptase-SEAP (hTERT-SEAP) activity in non-small cell lung cancer H1299 cell at 240.0 uM concentration; assay type: functional
NCI-H1299 [7] = assay: hTERT-SEAP (Human telomerase reverse transcriptase-SEAP) activity in non-small cell lung cancer H1299 cell at 24 uM concentration and level of cell viability determined in MTT assay; assay type: functional
BJ [8] = assay: Compound was tested for human telomerase reverse transcriptase-SEAP (hTERT-SEAP) activity in immortalized hTERT-BJI at 24 uM concentration; assay type: functional
BJ [9] = assay: Compound was tested for human telomerase reverse transcriptase-SEAP (hTERT-SEAP) activity in immortalized hTERT-BJI at 2.4 uM concentration; assay type: functional
NCI-H1299 [10] = assay: Compound was tested for human telomerase reverse transcriptase-SEAP (hTERT-SEAP) activity in non-small cell lung cancer H1299 cell at 2.4 uM concentration; assay type: functional
BJ [11] = assay: hTERT-SEAP (Human telomerase reverse transcriptase-SEAP) activity in immortalized hTERT-BJI at 240.0 uM concentration and level of cell viability determined in MTT assay; assay type: functional
NCI-H1299 [12] = assay: hTERT-SEAP (Human telomerase reverse transcriptase-SEAP) activity in non-small cell lung cancer H1299 cell at 230.0 uM concentration and level of cell viability determined in MTT assay; assay type: functional
NCI-H1299 [13] = assay: (§1) hTERT-SEAP (Human telomerase reverse transcriptase-SEAP) activity in non-small cell lung cancer H1299 cell at 2.3 uM concentration and level of cell viability determined in MTT assay; assay type: functional
NCI-H1299 [14] = assay: as §1; assay type: functional; remark: listed apart in the source
NCI-H1299 [15] = assay: (§2) Compound was tested for human telomerase reverse transcriptase-SEAP (hTERT-SEAP) activity in non-small cell lung cancer H1299 cell at 2.3 uM concentration; assay type: functional
BJ [16] = assay: hTERT-SEAP (Human telomerase reverse transcriptase-SEAP) activity in immortalized hTERT-BJI at 23 uM concentration and level of cell viability determined in MTT assay; assay type: functional
NCI-H1299 [17] = assay: Compound was tested for human telomerase reverse transcriptase-SEAP (hTERT-SEAP) activity in non-small cell lung cancer H1299 cell at 230.0 uM concentration; assay type: functional
NCI-H1299 [18] = assay: Compound was tested for human telomerase reverse transcriptase-SEAP (hTERT-SEAP) activity in non-small cell lung cancer H1299 cell at 23 uM concentration; assay type: functional
NCI-H1299 [19] = assay: hTERT-SEAP (Human telomerase reverse transcriptase-SEAP) activity in non-small cell lung cancer H1299 cell at 23 uM concentration and level of cell viability determined in MTT assay; assay type: functional
BJ [20] = assay: Compound was tested for human telomerase reverse transcriptase-SEAP (hTERT-SEAP) activity in immortalized hTERT-BJI at 230.0 uM concentration; assay type: functional
NCI-H1299 [21] = assay: as §2; assay type: functional; remark: listed apart in the source
BJ [22] = assay: hTERT-SEAP (Human telomerase reverse transcriptase-SEAP) activity in immortalized hTERT-BJI at 230.0 uM concentration and level of cell viability determined in MTT assay; assay type: functional
BJ [23] = assay: Compound was tested for human telomerase reverse transcriptase-SEAP (hTERT-SEAP) activity in immortalized hTERT-BJI at 23 uM concentration; assay type: functional
BJ [24] = assay: hTERT-SEAP (Human telomerase reverse transcriptase-SEAP) activity in immortalized hTERT-BJI at 26 uM concentration and level of cell viability determined in MTT assay; assay type: functional
BJ [25] = assay: Compound was tested for human telomerase reverse transcriptase-SEAP (hTERT-SEAP) activity in immortalized hTERT-BJI at 26 uM concentration; assay type: functional
BJ [26] = assay: Compound was tested for human telomerase reverse transcriptase-SEAP (hTERT-SEAP) activity in immortalized hTERT-BJI at 260.0 uM concentration; assay type: functional
NCI-H1299 [27] = assay: Compound was tested for human telomerase reverse transcriptase-SEAP (hTERT-SEAP) activity in non-small cell lung cancer H1299 cell at 2.6 uM concentration; assay type: functional
NCI-H1299 [28] = assay: hTERT-SEAP (Human telomerase reverse transcriptase-SEAP) activity in non-small cell lung cancer H1299 cell at 26 uM concentration and level of cell viability determined in MTT assay; assay type: functional
NCI-H1299 [29] = assay: Compound was tested for human telomerase reverse transcriptase-SEAP (hTERT-SEAP) activity in non-small cell lung cancer H1299 cell at 260.0 uM concentration; assay type: functional
NCI-H1299 [30] = assay: hTERT-SEAP (Human telomerase reverse transcriptase-SEAP) activity in non-small cell lung cancer H1299 cell at 260.0 uM concentration and level of cell viability determined in MTT assay; assay type: functional
BJ [31] = assay: hTERT-SEAP (Human telomerase reverse transcriptase-SEAP) activity in immortalized hTERT-BJI at 260.0 uM concentration and level of cell viability determined in MTT assay; assay type: functional
NCI-H1299 [32] = assay: hTERT-SEAP (Human telomerase reverse transcriptase-SEAP) activity in non-small cell lung cancer H1299 cell at 2.6 uM concentration and level of cell viability determined in MTT assay; assay type: functional
NCI-H1299 [33] = assay: Compound was tested for human telomerase reverse transcriptase-SEAP (hTERT-SEAP) activity in non-small cell lung cancer H1299 cell at 26 uM concentration; assay type: functional
BJ [34] = assay: pPCMV-SEAP (cytomegalovirus-SEAP) activity in immortalized hTERT-BJ1 at 22 uM concentration and level of cell viability determined in MTT assay; assay type: functional, Homo sapiens
BJ [35] = assay: pPCMV-SEAP (cytomegalovirus-SEAP) activity in immortalized hTERT-BJ1 at 220 uM concentration and level of cell viability determined in MTT assay; assay type: functional, Homo sapiens
BJ [36] = assay: hTERT-SEAP (Human telomerase reverse transcriptase-SEAP) activity in immortalized hTERT-BJI at 22 uM concentration and level of cell viability determined in MTT assay; assay type: functional
NCI-H1299 [37] = assay: hTERT-SEAP (Human telomerase reverse transcriptase-SEAP) activity in non-small cell lung cancer H1299 cell at 220.0 uM concentration and level of cell viability determined in MTT assay; assay type: functional
NCI-H1299 [38] = assay: Compound was tested for human telomerase reverse transcriptase-SEAP (hTERT-SEAP) activity in non-small cell lung cancer H1299 cell at 22 uM concentration; assay type: functional
BJ [39] = assay: Compound was tested for cytomegalovirus or (pPCMV-SEAP) activity in immortalized hTERT-BJ1 at 22 uM concentration; assay type: functional, Homo sapiens
BJ [40] = assay: Compound was tested for cytomegalovirus or (pPCMV-SEAP) activity in immortalized hTERT-BJ1 at 220 uM concentration; assay type: functional, Homo sapiens
BJ [41] = assay: Compound was tested for human telomerase reverse transcriptase-SEAP (hTERT-SEAP) activity in immortalized hTERT-BJI at 22 uM concentration; assay type: functional
NCI-H1299 [42] = assay: hTERT-SEAP (Human telomerase reverse transcriptase-SEAP) activity in non-small cell lung cancer H1299 cell at 22 uM concentration and level of cell viability determined in MTT assay; assay type: functional
NCI-H1299 [43] = assay: Compound was tested for human telomerase reverse transcriptase-SEAP (hTERT-SEAP) activity in non-small cell lung cancer H1299 cell at 2.2 uM concentration; assay type: functional
BJ [44] = assay: hTERT-SEAP (Human telomerase reverse transcriptase-SEAP) activity in immortalized hTERT-BJI at 220.0 uM concentration and level of cell viability determined in MTT assay; assay type: functional
BJ [45] = assay: pPCMV-SEAP (cytomegalovirus-SEAP) activity in immortalized hTERT-BJ1 at 2.2 uM concentration and level of cell viability determined in MTT assay; assay type: functional, Homo sapiens
BJ [46] = assay: Compound was tested for human telomerase reverse transcriptase-SEAP (hTERT-SEAP) activity in immortalized hTERT-BJI at 220.0 uM concentration; assay type: functional
NCI-H1299 [47] = assay: Compound was tested for human telomerase reverse transcriptase-SEAP (hTERT-SEAP) activity in non-small cell lung cancer H1299 cell at 220.0 uM concentration; assay type: functional
BJ [48] = assay: hTERT-SEAP (Human telomerase reverse transcriptase-SEAP) activity in immortalized hTERT-BJI at 2.2 uM concentration and level of cell viability determined in MTT assay; assay type: functional
BJ [49] = assay: Compound was tested for cytomegalovirus or (pPCMV-SEAP) activity in immortalized hTERT-BJ1 at 2.2 uM concentration; assay type: functional, Homo sapiens
BJ [50] = assay: Compound was tested for human telomerase reverse transcriptase-SEAP (hTERT-SEAP) activity in immortalized hTERT-BJI at 2.2 uM concentration; assay type: functional
NCI-H1299 [51] = assay: hTERT-SEAP (Human telomerase reverse transcriptase-SEAP) activity in non-small cell lung cancer H1299 cell at 2.2 uM concentration and level of cell viability determined in MTT assay; assay type: functional

For `O=C1c2cccc(SCC(O)CO)c2C(=O)c2cccc(SCC(O)CO)c21` (stereo not drawn), the Relative viability (BJ [1]) was 86%, the “Relative SEAP activity” value (NCI-H1299 [2]) was 90% and the Relative viability (NCI-H1299 [3]) was 102%. The Relative viability (NCI-H1299 [4]) was 83%, the “Relative SEAP activity” value (BJ [5]) was 142% and the “Relative SEAP activity” value (NCI-H1299 [6]) was 81%. For the same compound, the Relative viability (NCI-H1299 [7]) was 103%, the “Relative SEAP activity” value (BJ [8]) was 136% and the “Relative SEAP activity” value (BJ [9]) was 144%. For the same compound, the “Relative SEAP activity” value (NCI-H1299 [10]) was 105% and the Relative viability (BJ [11]) was 79%.
`O=C1c2cccc(Sc3ccncc3)c2C(=O)c2cccc(Sc3ccncc3)c21` showed a Relative viability (NCI-H1299 [12]) of 29%, a Relative viability (NCI-H1299 [13]) of 79% and a Relative viability (NCI-H1299 [14]) of 112%. The “Relative SEAP activity” value (NCI-H1299 [15]) was 104%, the Relative viability (BJ [16]) was 91% and the “Relative SEAP activity” value (NCI-H1299 [17]) was 89%. For the same compound, the “Relative SEAP activity” value (NCI-H1299 [18]) was 103%, the Relative viability (NCI-H1299 [19]) was 45% and the “Relative SEAP activity” value (BJ [20]) was 121%. For the same compound, the “Relative SEAP activity” value (NCI-H1299 [21]) was 98%, the Relative viability (BJ [22]) was 55% and the “Relative SEAP activity” value (BJ [23]) was 133%.
For `CCCC(=O)Oc1cccc2c1C(=O)c1cccc(OC(=O)CCC)c1C2=O`, the Relative viability (BJ [24]) was 106%, the “Relative SEAP activity” value (BJ [25]) was 119% and the “Relative SEAP activity” value (BJ [26]) was 134%. The “Relative SEAP activity” value (NCI-H1299 [27]) was 114%, the Relative viability (NCI-H1299 [28]) was 106% and the “Relative SEAP activity” value (NCI-H1299 [29]) was 111%. It also gave a Relative viability (NCI-H1299 [30]) of 87%, a Relative viability (BJ [31]) of 85% and a Relative viability (NCI-H1299 [32]) of 107%. The “Relative SEAP activity” value (NCI-H1299 [33]) was 118%.
`Nc1ccccc1Sc1cccc2c1C(=O)c1cccc(Sc3ccccc3N)c1C2=O` showed a Relative viability (BJ [34]) of 109%, a Relative viability (BJ [35]) of 48% and a Relative viability (BJ [36]) of 107%. For the same compound, the Relative viability (NCI-H1299 [37]) was 14%, the “Relative SEAP activity” value (NCI-H1299 [38]) was 96% and the “Relative SEAP activity” value (BJ [39]) was 102%. The “Relative SEAP activity” value (BJ [40]) was 122%, the “Relative SEAP activity” value (BJ [41]) was 141% and the Relative viability (NCI-H1299 [42]) was 50%. For the same compound, the “Relative SEAP activity” value (NCI-H1299 [43]) was 108%, the Relative viability (BJ [44]) was 25% and the Relative viability (BJ [45]) was 108%. For the same compound, the “Relative SEAP activity” value (BJ [46]) was 115%, the “Relative SEAP activity” value (NCI-H1299 [47]) was 59% and the Relative viability (BJ [48]) was 103%. For the same compound, the “Relative SEAP activity” value (BJ [49]) was 103%, the “Relative SEAP activity” value (BJ [50]) was 136% and the Relative viability (NCI-H1299 [51]) was 94%.
In the case of `O=C1c2cccc(Sc3ncccn3)c2C(=O)c2cccc(Sc3ncccn3)c21`, the Relative viability (NCI-H1299 [12]) is reported as 44%, the Relative viability (NCI-H1299 [13]) is reported as 107% and the Relative viability (NCI-H1299 [14]) is reported as 104%. The “Relative SEAP activity” value (NCI-H1299 [15]) was 105%, the Relative viability (BJ [16]) was 103% and the “Relative SEAP activity” value (NCI-H1299 [17]) was 49%. The “Relative SEAP activity” value (NCI-H1299 [18]) was 110%, the Relative viability (NCI-H1299 [19]) was 99% and the “Relative SEAP activity” value (BJ [20]) was 61%. The “Relative SEAP activity” value (NCI-H1299 [21]) was 137%, the Relative viability (BJ [22]) was 73% and the “Relative SEAP activity” value (BJ [23]) was 125%.
